Test results published in paper PMC9608995 (Pharmaceutics, 2022).
Marks after values point to notes of the source that are not given here.

What was measured:
H. nana [1] = assay: Intestinal histopathology (H&E) in H. nana-infected rats; format: in vivo, Hymenolepis nana
Experimental: (§1) The rats were males weighing 120–150 g and were free of parasitic infections. The rats were housed in a specific pathogen-free environment under standard conditions (22 ± 2 °C and 50–60% humidity) and were supplied food and water ad libitum. Rats of groups I-V were inoculated with shell-free eggs via the oral route using a stomach tube. Each animal received 3000 eggs in 0.1 mL of PBS pH 7.4. At day 16th post infection, a fecal examination was carried out and egg count per gram was detected using the McMaster technique. Group I was used as the infected non-treated control group. […] Animals of group VI were used as the non-infected non-treated control group. […] All procedures for agent administration, blood and tissue manipulation were in accordance with the Guide for the Care and Use of Laboratory Animals (8th edition) published in 2011 by the United States National Academy of Sciences.
Intestines of rats from different groups were gathered and instantly fixed for 24 h in neutrally buffered 10% formalin. Wet tissue sections were dehydrated through a series of alcohols and embedded in paraffin. Serial 4 μm thick cuts were made on all paraffin blocks by rotatory microtome. Thereafter, the cuts were fixed on glass slides and the paraffin was removed. […]

[2] = cited from earlier work
H. nana [3] = assay: Worm burden and worm reduction in H. nana-infected rats; format: in vivo, Hymenolepis nana; conditions: for Percentage reduction of worm count: rats; for Worm count: worm numbers per rat, 23rd day, n = 10
Excerpt: (§2) Mature H. nana worms were gathered from naturally-infected Mus musculus and kept in outbred rats. Thereafter, collection of the eggs was executed from infected rats that were euthanized on day 16th post infection. Infectious shell-free eggs were produced from the gravid segments of adult worms via agitating the egg suspension with 3 mm-diameter glass beads shortly prior to use.
as §1
On the 23rd day of the experiment, the rats were euthanized and the small intestines were removed. The small intestines were longitudinally dissected and the worm burdens were assessed.

[4] = In vitro release, membrane diffusion procedure, with kinetic model fitting; format: physicochemical; conditions: PBS pH 7.4 with 0.2% w/v SLS, 37 °C
Experimental: In triplicate, the release behavior of PRZ from the assembled PMMs was investigated utilizing a type 1, SR 8 Plus USP dissolution tester apparatus (Hanson Research, Chatsworth, Los Angeles, CA, USA) employing the membrane diffusion procedure. […] For establishing the sink condition, 70 mL of phosphate-buffered saline (PBS) comprising 0.2% w/v sodium lauryl sulfate (SLS) was used as the release milieu after adjusting the pH to 7.4 and setting the temperature to 37 ± 0.5 °C [27]. After fixing the filled cylinders to the USP dissolution apparatus shafts, a revolving speed of 50 rpm was applied. About 1-mL aliquots were intermittently pulled out after 0.5, 1, 2, 4, 6, 8, 12 and lastly after 24 h as prescheduled time intervals. In order to maintain the volume of the dissolution milieu at a fixed level, each aspiration was recompensed with a fresh milieu. After applying the appropriate dilution, a spectrophotometer set at λmax 263 was used to quantify PRZ in the collected samples. Afterwards, PRZ accumulative % released, as mean (±SD) values, was graphed versus time. An analogous experimentation was conducted on 2 mL of 1.5 mg/mL free PRZ aqueous suspension for comparative purposes. […] Amplification of the coefficient of determination (R^2) made the grounds for picking the most appropriate arithmetic model.

[5] = cited from earlier work; remark: listed apart in the source
[6] = Oral pharmacokinetics in rats, LC-MS/MS, non-compartmental analysis; conditions: male, Wistar, rat, 12.5 mg/kg
Experimental: Twelve male Wistar rats (120–150 g), procured from the animal facility of the Research Institute of Ophthalmology (Giza, Egypt), were arbitrarily allocated into two groups of six rats each. The polyacrylic cages, which the rats were lodged in, were maintained under controlled temperature (22 ± 2 °C) and relative humidity (55 ± 5%), in the presence of day and night cycled over 12 h intervals. The animals were provided with tap water ad libitum and standard forage till the night before dosing was commenced so that a 12 h starvation period was allowed. […] Next, centrifugation at 4000 rpm was directly applied to the tubes for 10 min in order to collect plasma. The isolated plasma samples were stored at −20 °C pending assay. The current study was reviewed and approved by our institutional Animal Ethics Committee of Beni-Suef University (protocol approval code: REC-A-PhBSU-20015).
A liquid chromatography–tandem mass spectrometry (LC–MS/MS) method was employed to assay the gathered plasma samples for PRZ. An Agilent eclipse C18 column (Agilent Technologies, Santa Clara, CA, USA) with the dimensions of 3.5 µm × 4.6 mm × 100 mm was employed for chromatographic separation utilizing the isocratic elution technique. The mobile phase, consisted of methanol and 0.1% formic acid (85:15, v/v), was delivered at a flow rate of 0.8 mL/min (split ratio 1/1). A sample injection volume of 10 µL was utilized. The temperatures of the column and autosampler oven were set to 40 °C and 15 °C, respectively. Electrospray ionization (ESI) in the positive mode was used for the operation of the mass spectrometer. Nitrogen was employed as the auxiliary and nebulizer gas. Source temperature, nebulizer gas, curtain gas and heater gas (i.e., the principal operation parameters) were adjusted at 500 °C, 60 psi, 25 psi and 60 psi, respectively. The ion spray voltage was tuned at 5500 V. Entrance potential, declustering potential, collision energy and collision exit potential (i.e., the compound parameters) were 10, 130, 15, 20 V for PRZ and 10, 91, 29, 12 V for diazepam as an internal standard (IS), respectively. Quantification was performed in the multiple reactions monitoring mode with m/z 313.18 → 203.10 for PRZ and m/z 285.31→193.00 for IS. Operation of the detector was at 1900 V. Analytical data processing was carried out through Analyst software (Version 1.4.2, Applied Biosystems, MDS SCIEX, Concord, ON, Canada).
A procedure based on liquid–liquid extraction was utilized. Briefly, to a plasma sample (100 µL), 10 µL of IS solution (50 ng/mL) was spiked and 1 mL of methyl-ter-butyl ether was added. The mixture was vortexed for 30 s to ensure homogeneity and then centrifugation at 3000 rpm was applied for 10 min. Into a conical glass tube, the transparent supernatant was transmitted and left at ambient temperature until the organic layer was entirely evaporated. The residues resulting from the evaporation process were then dissolved in the mobile phase and 10 µL of the solution was subsequently injected through the autosampler.
The non-compartmental pharmacokinetic analysis function built into the Excel Add-In software, PK Solver, was employed to analyze the time course of the PRZ concentration in rat plasma for estimation of pharmacokinetic parameters. The software assesses the maximal drug concentration (Cmax, ng/mL) and elapsed time to attain such concentration (Tmax, h) directly from the plasma concentration–time curve. The software adopts the trapezoidal rule method for quantifying the area under the curve (AUC) from 0 to t (AUC0–t, ng h/mL) and from 0 to infinity (AUC0–∞, ng h/mL).

H. nana eggs = assay: In vitro ovicidal activity, Fuchsin vital stain; format: cell-based, Hymenolepis nana; conditions: PRZ-PMMs finding at 50 µg/mL
Experimental: Three tubes for each concentration of each formulation were prepared. On clean glass slides, 100 µL of eggs of the different treatments were added and stained with 20 µL of freshly prepared Fuchsin for 10 min and examined under a light microscope.

H. nana [7] = assay: Fecal egg count and egg reduction in H. nana-infected rats; format: in vivo, Hymenolepis nana; conditions: for Percentage reduction of egg count: 1st and 3rd day after treatment; for Mean egg count, 1st day after treatment / Mean egg count, 3rd day after treatment: fecal egg count per gram (EPG), n = 10
Excerpt: as §2, §1
Fecal egg count per gram (EPG) was estimated in the different groups on day 21 and 23 of the experiment. Fecal egg reduction percentage was calculated based on the formula [34]: Fecal egg reduction percentage=EPG before treatment−EPG post treatment/EPG before treatment×100

[8] = single oral dose 25 mg/kg, 25 mg/kg
[9] = single oral dose 25 mg/kg, listed as crude PRZ, 25 mg/kg

Q: Which “Intestinal histopathology, parasitic sections” value (H. nana [1]; 12.5 mg/kg oral) does the source give for `O=C(C1CCCCC1)N1CC(=O)N2CCc3ccccc3C2C1` (stereo not shown) [Crude PRZ, praziquantel] here?
A: The value was “submucosal granulomatous reaction in association with the detected parasitic sections”.

Q: What about the “Intestinal histopathology, parasitic sections” value (H. nana [1]; 25 mg/kg oral) of the same molecule?
A: The value was “no parasitic sections”.

Q: And the Terminal half-life [2]?
A: Its Terminal half-life is 1 to 1.5 h.

Q: What about the “Percentage reduction of worm count” value (H. nana [3]; single oral dose 12.5 mg/kg, 12.5 mg/kg) of the same molecule?
A: The value was 73.3%.

Q: And the “Percentage reduction of worm count” value (H. nana [3]; single oral dose 12.5 mg/kg, listed as crude PRZ, 12.5 mg/kg)?
A: Its value is 73.3%.

Q: And the “Percentage reduction of worm count” value (H. nana [3]; [8])?
A: The value was 100%.

Q: And the “Percentage reduction of worm count” value (H. nana [3]; [9])?
A: Its value is 100%.

Q: And the Worm count (H. nana [3]; single oral dose 12.5 mg/kg)?
A: The Worm count was 16.60 ± 1.14 ^a,b,d,e.

Q: What about the Worm count (H. nana [3]; single oral dose 25 mg/kg) of the same molecule?
A: Its Worm count is 0.00 ± 0.00 ^a.

Q: And the “Accumulative % released at 1 h” value [4]?
A: Its value is 98.81 ± 5.94%.

Q: And the Intrinsic hydrosolubility [5]?
A: Its Intrinsic hydrosolubility is ~ 0.3 mg/mL.

Q: What about the half-life ([6]; in vivo) of the same molecule?
A: The half-life was 1.11 ± 0.04 h.

Q: And the AUC(0-inf) ([6]; po)?
A: Its AUC(0-inf) is 566 ± 102 ng·h/mL.

Q: And the AUC(0-t) ([6]; po)?
A: The AUC(0-t) was 390 ± 95.3 ng·h/mL.

Q: What about the Cmax ([6]; po) of the same molecule?
A: Its Cmax is 290 ± 28.5 ng/mL.

Q: What about the MRT ([6]; po) of the same molecule?
A: Its MRT is 3.05 ± 0.46 h.

Q: What about the Tmax ([6]; po) of the same molecule?
A: Its Tmax is 0.24 ± 0.03 h.

Q: What about the k el ([6]; po) of the same molecule?
A: Its k el is 0.000173 s⁻¹.

Q: And the “Morphological changes of the eggs” value (H. nana eggs)?
A: The value was “mild shell deformities and embryo damage”.

Q: What about the “Percentage reduction of egg count” value (H. nana [7]; single oral dose 12.5 mg/kg) of the same molecule?
A: The value was 90.6–91.1%.

Q: And the “Reduction of eggs output in feces” value (H. nana [7]; single oral dose 12.5 mg/kg, 21st day)?
A: The value was 90.6%.

Q: And the “Reduction of eggs output in feces” value (H. nana [7]; single oral dose 12.5 mg/kg, 23rd day)?
A: Its value is 91.1%.

Q: What about the “Mean egg count, 1st day after treatment” value (H. nana [7]; single oral dose 12.5 mg/kg) of the same molecule?
A: Its value is 1033.20 ± 40.83 ^a,b,d,e.

Q: What about the “Mean egg count, 3rd day after treatment” value (H. nana [7]; single oral dose 12.5 mg/kg) of the same molecule?
A: Its value is 966.60 ± 40.83 ^a,b,d,e.

Q: What about the “Percentage reduction of egg count” value (H. nana [7]; [8]) of the same molecule?
A: The value was 100%.

Q: And the “Percentage reduction of egg count” value (H. nana [7]; [9])?
A: The value was 100%.

Q: And the “Mean egg count, 1st day after treatment” value (H. nana [7]; single oral dose 25 mg/kg)?
A: The value was 0.00 ± 0.00 ^a,c.

Q: What about the “Mean egg count, 3rd day after treatment” value (H. nana [7]; single oral dose 25 mg/kg) of the same molecule?
A: Its value is 0.00 ± 0.00 ^a,c.
